Laboratory results from US11040035B2, “3-oxo-2,6-diphenyl-2,3-dihydropyridazine-4-carboxamides” (BAYER PHARMA AKTIENGESELLSCHAFT, priority 2016, dated 2021).
Like-named read-outs stand apart in the source and are kept apart here.

Columns and labels:
AHR [1] = target: T1, AHR (Homo sapiens, UniProt P35869); test: In vitro assay 2: agonism in human cell line (transactivation assay)
T1 sequence (P35869 11-848): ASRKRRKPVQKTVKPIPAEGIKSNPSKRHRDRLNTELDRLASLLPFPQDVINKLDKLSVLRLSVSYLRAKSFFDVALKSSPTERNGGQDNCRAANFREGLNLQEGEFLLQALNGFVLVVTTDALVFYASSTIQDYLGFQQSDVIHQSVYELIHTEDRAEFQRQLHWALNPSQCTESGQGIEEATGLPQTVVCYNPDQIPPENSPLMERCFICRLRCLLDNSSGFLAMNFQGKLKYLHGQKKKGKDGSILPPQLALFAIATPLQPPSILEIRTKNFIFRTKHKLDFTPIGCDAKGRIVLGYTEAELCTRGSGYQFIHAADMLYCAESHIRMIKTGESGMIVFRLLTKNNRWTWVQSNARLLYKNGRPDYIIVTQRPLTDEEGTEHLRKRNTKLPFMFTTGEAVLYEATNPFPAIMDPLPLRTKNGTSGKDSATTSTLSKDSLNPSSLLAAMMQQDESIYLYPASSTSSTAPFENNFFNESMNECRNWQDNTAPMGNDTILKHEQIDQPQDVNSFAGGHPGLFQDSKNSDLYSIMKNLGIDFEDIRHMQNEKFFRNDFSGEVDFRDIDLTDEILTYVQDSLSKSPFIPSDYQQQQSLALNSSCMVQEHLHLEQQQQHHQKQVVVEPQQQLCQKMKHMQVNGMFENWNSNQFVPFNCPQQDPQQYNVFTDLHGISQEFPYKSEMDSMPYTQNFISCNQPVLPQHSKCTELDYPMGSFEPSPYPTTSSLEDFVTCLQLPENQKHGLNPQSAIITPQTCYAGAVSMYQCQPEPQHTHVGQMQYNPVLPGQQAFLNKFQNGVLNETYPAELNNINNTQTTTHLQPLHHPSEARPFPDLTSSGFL

[2] = tested on: AHR-regulated gene CYP1A1; test: In vitro assay 3: AHR-regulated CYP1A1 expression in human cell line (U937, qPCR)
Experimental: In Vitro Assay 3: AHR-Regulated CYP1A1 Expression in Human Cell Line
To assess the AHR inhibitory activity of the substances described in this application, the ability thereof to antagonise ligand-induced AHR gene regulation in a dose-dependent manner was quantified. For this purpose, quantitative PCR analysis was used to determine expression of the AHR-regulated gene CYP1A1 in a human monocytic U937 cell line upon stimulation with 200 μM KA in the presence and absence of AHR inhibitor. U937 cells were sown at a concentration of 2×10^5 cells/well in 100 ul of growth medium (RPMI 1640, 20% FCS) in 96-well microtitre plates. CYP1A1 expression was induced with 200 μM KA (positive control) in the presence or absence of the substances for 6 hours. Human U937 cells were typically incubated with eight different concentrations of the substances (1 nM, 3 nM, 10 nM, 30 nM, 100 nM, 300 nM, 1 μM and 3 μM) and analyzed in duplicate on the same microtitre plate. After stimulation, cells were lysed with Nucleic Acid Lysis Solution (#4305895, Applied Biosystems) and RNA was isolated using the 6100 Nucleic Acid Preparation Station (Applied Biosystems) and reverse-transcribed to cDNA using SuperScript VILO cDNA synthesis kit (#11754-250, Invitrogen). Unstimulated cells were used as the negative control. Taqman probes for human CYP1A1 (Hs01054797_g1) and human HPRT (Hs02800695_m1) were used to analyze fold expression of CYP1A1 of HPRT. Quantitation was performed on a Taqman SDS7900HT.

AHR [3] = target: T1, AHR; test: In vitro assay 1: antagonism in human cell line (transactivation assay, kynurenic acid prestimulated); conditions: Assay 1: AHR-luc Hum Antagonism IC50 [M], 150 μM kynurenic acid, 20 hours, firefly luciferase
[4] = read-out: Assay 2: AHR-luc Hum Agonism IC50, no kynurenic acid, 20 hours, firefly luciferase
[5] = read-out: Assay 3: Hum CYP1A1 Antagonism IC50, U937 cells, 200 μM KA, 6 hours, qPCR
[6] = Homo sapiens, U-937, 6 h, read-out: Assay 3: Hum CYP1A1 Antagonism IC50 [M], U937 cells, 200 μM KA, 6 hours, qPCR
[7] = Assay 2: AHR-luc Hum Agonism IC50 [M], no kynurenic acid, 20 hours, firefly luciferase

Row | IC50 (AHR [1]; [4]) [M] | IC50 [2, 5] [M] | IC50 (AHR [3]) [M] | IC50 [2, 6] [M] | IC50 (AHR [1]; [7]) [M] | SMILES
1 | > 2e-05 | 1.13e-07 | 1.27e-07 | – | – | O=C(NC(CO)C1CCOC1)c1cc(-c2ccc(OC(F)(F)F)cc2)nn(-c2cccc(F)c2)c1=O (single isomer, unassigned) [Example 178, 2-(3-Fluorophenyl)-N-[2-hydroxy-1-(tetrahydrofuran-3-yl)ethyl]-3-oxo-6-[4-(trifluoromethoxy)phenyl]-2,3-dihydropyridazine-4-carboxamide]
2 | > 2e-05 | – | 8.02e-08 | 2.12e-07 | – | CC(O)C(C)NC(=O)c1cc(-c2ccc(OC(F)(F)F)cc2)nn(-c2cccc(F)c2)c1=O (single isomer, unassigned) [Example 181, 2-(3-Fluorophenyl)-N-(3-hydroxybutan-2-yl)-3-oxo-6-[4-(trifluoromethoxy)phenyl]-2,3-dihydropyridazine-4-carboxamide]
3 | – | 4.14e-08 | 3.78e-08 | – | > 2e-05 | O=C(NCC(O)C(F)(F)F)c1cc(-c2ccc(OC(F)(F)F)cc2)nn(-c2cccc(F)c2)c1=O (single isomer, unassigned) [Example 183, 2-(3-Fluorophenyl)-3-oxo-N-(3,3,3-trifluoro-2-hydroxypropyl)-6-[4-(trifluoromethoxy)phenyl]-2,3-dihydropyridazine-4-carboxamide]
4 | > 2e-05 | 1.29e-07 | 1.34e-07 | – | – | O=C(NCC(O)C(F)(F)F)c1cc(-c2ccc(OC(F)(F)F)cc2)nn(-c2cccc(F)c2)c1=O (single isomer, unassigned) [Example 184, 2-(3-Fluorophenyl)-3-oxo-N-(3,3,3-trifluoro-2-hydroxypropyl)-6-[4-(trifluoromethoxy)phenyl]-2,3-dihydropyridazine-4-carboxamide]
5 | – | – | 1.34e-08 | 1.49e-08 | > 2e-05 | CC(O)C(NC(=O)c1cc(-c2ccc(Cl)cc2)nn(-c2cccc(F)c2)c1=O)C(F)(F)F (single isomer, unassigned) [Example 198, 6-(4-chlorophenyl)-2-(3-fluorophenyl)-3-oxo-N-(1,1,1-trifluoro-3-hydroxybutan-2-yl)-2,3-dihydropyridazine-4-carboxamide]
6 | – | 5.44e-09 | 6.12e-09 | – | > 2e-05 | CC(NC(=O)c1cc(-c2ccc(C(F)(F)F)cc2)nn(-c2cccc(F)c2)c1=O)C(O)C(F)(F)F (single isomer, unassigned) [Example 270, Isomer no. 3 of 2-(3-fluorophenyl)-3-oxo-N-(4,4,4-trifluoro-3-hydroxybutan-2-yl)-6-[4-(trifluoromethyl)phenyl]-2,3-dihydropyridazine-4-carboxamide]
7 | – | 3.01e-08 | 2.06e-08 | – | > 2e-05 | CC(NC(=O)c1cc(-c2ccc(C(F)(F)F)cc2)nn(-c2cccc(F)c2)c1=O)C(O)C(F)(F)F (single isomer, unassigned) [Example 271, Isomer no. 4 of 2-(3-fluorophenyl)-3-oxo-N-(4,4,4-trifluoro-3-hydroxybutan-2-yl)-6-[4-(trifluoromethyl)phenyl]-2,3-dihydropyridazine-4-carboxamide]
8 | – | – | 1.81e-08 | 3.39e-08 | > 2e-05 | O=C(N[C@@H]1CCCC(F)(F)[C@H]1O)c1cc(-c2ccc(Cl)cc2)nn(-c2cccc(F)c2)c1=O (single isomer, unassigned) [Example 275, 6-(4-Chlorophenyl)-N-[(trans)-3,3-difluoro-2-hydroxycyclohexyl]-2-(3-fluorophenyl)-3-oxo-2,3-dihydropyridazine-4-carboxamide]
9 | > 2e-05 | – | 4.92e-08 | 6.98e-08 | – | O=C(NC(CO)C1CCOC1)c1cc(-c2ccc(Cl)c(F)c2)nn(-c2cccc(F)c2)c1=O (single isomer, unassigned) [Example 293, 6-(4-Chloro-3-fluorophenyl)-2-(3-fluorophenyl)-N-[2-hydroxy-1-(tetrahydrofuran-3-yl)ethyl]-3-oxo-2,3-dihydropyridazine-4-carboxamide]
10 | – | – | 2.8e-08 | 3.22e-08 | > 2e-05 | C[C@@H](CO)CNC(=O)c1cc(-c2ccc(C(F)(F)F)cc2)nn(-c2cccc(F)c2)c1=O (single isomer, unassigned) [Example 329]
11 | > 2e-05 | – | 4.02e-08 | 2e-06 | – | O=C(N[C@H]1CC[C@@H]1O)c1cc(-c2ccc(Cl)cc2)nn(-c2cccc(F)c2)c1=O (single isomer, unassigned) [Example 336, (+)-6-(4-chlorophenyl)-2-(3-fluorophenyl)-N-(trans-2-hydroxycyclobutyl)-3-oxo-2,3-dihydropyridazine-4-carboxamide]
12 | – | 1.85e-08 | 5.84e-09 | – | > 2e-05 | O=C(N[C@@H]1COC[C@@H]1O)c1cc(-c2ccc(C(F)(F)F)cc2)nn(-c2cccc(F)c2)c1=O (single isomer, unassigned) [Example 344, (+)-2-(3-fluorophenyl)-N-(cis-4-hydroxytetrahydrofuran-3-yl)-3-oxo-6-[4-(trifluoromethyl)phenyl]-2,3-dihydropyridazine-4-carboxamide]
13 | > 2e-05 | 5.4e-08 | 1.58e-08 | – | – | O=C(N[C@@H]1COC[C@@H]1O)c1cc(-c2ccc(C(F)(F)F)cc2)nn(-c2cccc(F)c2)c1=O (single isomer, unassigned) [Example 345, (−)-2-(3-fluorophenyl)-N-(cis-4-hydroxytetrahydrofuran-3-yl)-3-oxo-6-[4-(trifluoromethyl)phenyl]-2,3-dihydropyridazine-4-carboxamide]
14 | – | 3.01e-08 | 1.1e-08 | – | > 2e-05 | CC(CCO)NC(=O)c1cc(-c2ccc(C(F)(F)F)cc2)nn(-c2cccc(F)c2)c1=O (single isomer, unassigned; (+)) [Example 254, (+)-2-(3-Fluorophenyl)-N-(4-hydroxybutan-2-yl)-3-oxo-6-[4-(trifluoromethyl)phenyl]-2,3-dihydropyridazine-4-carboxamide]
15 | > 2e-05 | 9.53e-08 | 4.47e-08 | – | – | O=C(NCC(O)C(F)F)c1cc(-c2ccc(C(F)(F)F)cc2)nn(-c2cccc(F)c2)c1=O (single isomer, unassigned; (+)) [Example 328, (+)-N-(3,3-difluoro-2-hydroxypropyl)-2-(3-fluorophenyl)-3-oxo-6-[4-(trifluoromethyl)phenyl]-2,3-dihydropyridazine-4-carboxamide]
16 | > 2e-05 | – | 1.66e-08 | 2.23e-08 | – | O=C(NC(CO)C1CCC1)c1cc(-c2ccc(Cl)cc2)nn(-c2cccc(F)c2)c1=O (single isomer, unassigned; (-)) [Example 211, (−)-6-(4-Chlorophenyl)-N-(1-cyclobutyl-2-hydroxyethyl)-2-(3-fluorophenyl)-3-oxo-2,3-dihydropyridazine-4-carboxamide]
17 | – | – | 4.87e-08 | 9.14e-08 | > 2e-05 | O=C(NCC(O)C(F)F)c1cc(-c2ccc(Cl)cc2)nn(-c2cccc(F)c2)c1=O (single isomer, unassigned; (-)) [Example 222, (−)-6-(4-Chlorophenyl)-N-(3,3-difluoro-2-hydroxypropyl)-2-(3-fluorophenyl)-3-oxo-2,3-dihydropyridazine-4-carboxamide]
18 | > 2e-05 | 3.89e-07 | 1.09e-07 | – | – | CC(CCO)NC(=O)c1cc(-c2ccc(C(F)(F)F)cc2)nn(-c2cccc(F)c2)c1=O (single isomer, unassigned; (-)) [Example 255, (−)-2-(3-Fluorophenyl)-N-(4-hydroxybutan-2-yl)-3-oxo-6-[4-(trifluoromethyl)phenyl]-2,3-dihydropyridazine-4-carboxamide]
19 | – | 1.38e-08 | 1.66e-08 | – | > 2e-05 | O=C(NCC(O)C(F)F)c1cc(-c2ccc(C(F)(F)F)cc2)nn(-c2cccc(F)c2)c1=O (single isomer, unassigned; (-)) [Example 327, (−)-N-(3,3-difluoro-2-hydroxypropyl)-2-(3-fluorophenyl)-3-oxo-6-[4-(trifluoromethyl)phenyl]-2,3-dihydropyridazine-4-carboxamide]
